Measured values: publication PMC3494675, “Structure-Function Analysis of the Glioma Targeting NFL-TBS.40-63 Peptide Corresponding to the Tubulin-Binding Site on the Light Neurofilament Subunit” (PLoS ONE, 2012)
Peptide text beside a SMILES is read from it. * marks the point of attachment. Biotin = O=C1N[C@H]2[C@H](CS[C@H]2CCCCC(=O)*)N1

Assays:
[1] = system: T98G human glioblastoma cells; test: Disintegration of the microtubule network in T98G cells (anti-tubulin immunostaining, cell counting); format: cell-based; settings: T98G cells, 10 µM biotinylated peptide, 6 hours; anti-tubulin immunostaining; minimum 200 cells per experiment; mean ± S.E.M., triplicated
Protocol: (§1) Cells containing the biotinylated peptide were detected using Alexa-labeled avidin (green fluorescence) and those displaying a normal or a destroyed MT network were detected with an anti-tubulin antibody (red fluorescence) ( Figure 1A-B ). Then, we counted a minimum of 200 cells per slide containing or not the peptide, and with a normal or destroyed microtubule network ( Figure 1C ). As illustrated on Figure 1A glioblastoma cells contain a rich MT network. […] Cells were plated on cover slips and cultured in media containing biotinylated peptides (10 μM) for 6 hours. […] The cells were then incubated during 10 min in a 0.5% triton X-100 permeabilization solution, and washed 3 times in PBS. Next, they were incubated in a blocking solution (PBS 5% BSA) for 15 min, then incubated with mouse anti-ß-tubulin antibody (Sigma) 1/200 overnight. Tubulin and biotinylated peptides were localized using respectively Alexa 568 nm anti-mouse antibody and streptavidin Alexa 488 nm (Molecular Probes) 1/200 for 1 hour, followed by washing in PBS. […] Sigma) for 5 min, washed twice with PBS, then cover slips were mounted with an antifading solution. Observations were performed with an Olympus confocal microscope (BX50) using Fluoview.3.1. Software or a Leica DMI6000 inverted microscope and analyzed with Metamorph 7.1.7.0. software. We counted cells containing the peptide and cells displaying a destroyed MT network. Experiments were repeated at least three times, and a minimum of 200 cells was scored during each experiment.

[2] = system: T98G human glioblastoma cells; test: Peptide incorporation into T98G cells (immunocytochemistry, cell counting); format: cell-based; settings: 6 hours; for Peptide incorporation (% of cells): T98G cells, 10 µM biotinylated peptide, Alexa-labeled avidin/streptavidin fluorescence microscopy, minimum 200 cells per experiment, mean ± S.E.M., triplicated
Protocol: as §1

CC(C)C[C@H](NC(=O)[C@H](CO)NC(=O)[C@H](CO)NC(=O)[C@H](CO)NC(=O)[C@@H](NC(=O)[C@@H]1CCCN1C(=O)[C@H](C)NC(=O)[C@H](CO)NC(=O)[C@H](Cc1ccc(O)cc1)NC(=O)[C@H](CO)NC(=O)[C@H](CO)NC(=O)[C@H](Cc1ccc(O)cc1)NC(=O)CCCC[C@@H]1SC[C@@H]2NC(=O)N[C@@H]21)C(C)C)C(=O)N[C@@H](CO)C(=O)N[C@H](C(=O)N[C@@H](CCCNC(=N)N)C(=O)N[C@@H](CCCNC(=N)N)C(=O)N[C@@H](CO)C(=O)N[C@@H](Cc1ccc(O)cc1)C(=O)N[C@@H](CO)C(=O)N[C@@H](CO)C(=O)N[C@@H](CO)C(=O)N[C@@H](CO)C(=O)NCC(=O)N[C@@H](CO)C(N)=O)C(C)C [Ala6Ala] (Biotin-YSSYSAPVSSSLSVRRSYSSSSGS-NH2)
Disintegration of MT (% of cells) [1]: 48.1±6.6 % of cells
Peptide incorporation (% of cells) [2]: 50.3±4.6 % of cells

CC(C)C[C@H](NC(=O)[C@H](CO)NC(=O)[C@H](CO)NC(=O)[C@H](CO)NC(=O)[C@@H](NC(=O)[C@@H]1CCCN1C(=O)[C@H](C)NC(=O)[C@H](CO)NC(=O)[C@H](Cc1ccc(O)cc1)NC(=O)[C@H](CO)NC(=O)[C@H](CO)NC(=O)[C@H](Cc1ccc(O)cc1)NC(=O)CCCC[C@@H]1SC[C@@H]2NC(=O)N[C@@H]21)C(C)C)C(=O)N[C@@H](CO)C(=O)N[C@H](C(=O)N[C@@H](C)C(=O)N[C@@H](CCCNC(=N)N)C(=O)N[C@@H](CO)C(=O)N[C@@H](Cc1ccc(O)cc1)C(=O)N[C@@H](CO)C(=O)N[C@@H](CO)C(=O)N[C@@H](CO)C(=O)N[C@@H](CO)C(=O)NCC(=O)N[C@@H](CO)C(N)=O)C(C)C [Arg15Ala] (Biotin-YSSYSAPVSSSLSVARSYSSSSGS-NH2)
Disintegration of MT (% of cells) [1]: 25.5±6.3 % of cells
Peptide incorporation (% of cells) [2]: 18.1±1.3 % of cells

CC(C)C[C@H](NC(=O)[C@H](CO)NC(=O)[C@H](CO)NC(=O)[C@H](CO)NC(=O)[C@@H](NC(=O)[C@@H]1CCCN1C(=O)[C@H](C)NC(=O)[C@H](CO)NC(=O)[C@H](Cc1ccc(O)cc1)NC(=O)[C@H](CO)NC(=O)[C@H](CO)NC(=O)[C@H](Cc1ccc(O)cc1)NC(=O)CCCC[C@@H]1SC[C@@H]2NC(=O)N[C@@H]21)C(C)C)C(=O)N[C@@H](CO)C(=O)N[C@H](C(=O)N[C@@H](CCCNC(=N)N)C(=O)N[C@@H](C)C(=O)N[C@@H](CO)C(=O)N[C@@H](Cc1ccc(O)cc1)C(=O)N[C@@H](CO)C(=O)N[C@@H](CO)C(=O)N[C@@H](CO)C(=O)N[C@@H](CO)C(=O)NCC(=O)N[C@@H](CO)C(N)=O)C(C)C [Arg16Ala] (Biotin-YSSYSAPVSSSLSVRASYSSSSGS-NH2)
Disintegration of MT (% of cells) [1]: 15.6±3.0 % of cells
Peptide incorporation (% of cells) [2]: 0 % of cells

CC(C)C[C@H](NC(=O)[C@H](CO)NC(=O)[C@H](CO)NC(=O)[C@H](CO)NC(=O)[C@@H](NC(=O)[C@@H]1CCCN1C(=O)[C@H](C)NC(=O)[C@H](CO)NC(=O)[C@H](Cc1ccc(O)cc1)NC(=O)[C@H](CO)NC(=O)[C@H](CO)NC(=O)[C@H](Cc1ccc(O)cc1)NC(=O)CCCC[C@@H]1SC[C@@H]2NC(=O)N[C@@H]21)C(C)C)C(=O)N[C@@H](CO)C(=O)N[C@H](C(=O)N[C@@H](CCCNC(=N)N)C(=O)N[C@@H](CCCCN)C(=O)N[C@@H](CO)C(=O)N[C@@H](Cc1ccc(O)cc1)C(=O)N[C@@H](CO)C(=O)N[C@@H](CO)C(=O)N[C@@H](CO)C(=O)N[C@@H](CO)C(=O)NCC(=O)N[C@@H](CO)C(N)=O)C(C)C [Arg16Lys] (Biotin-YSSYSAPVSSSLSVRKSYSSSSGS-NH2)
Disintegration of MT (% of cells) [1]: 36.9±0.9 % of cells
Peptide incorporation (% of cells) [2]: 32.9±1.3 % of cells

CC(C)C[C@H](NC(=O)[C@H](CO)NC(=O)[C@H](CO)NC(=O)[C@H](CO)NC(=O)[C@@H](NC(=O)[C@@H]1CCCN1C(=O)[C@H](C)NC(=O)[C@H](CO)NC(=O)[C@H](Cc1ccc(O)cc1)NC(=O)[C@H](CO)NC(=O)[C@H](CO)NC(=O)[C@H](Cc1ccc(O)cc1)NC(=O)CCCC[C@@H]1SC[C@@H]2NC(=O)N[C@@H]21)C(C)C)C(=O)N[C@@H](CO)C(=O)N[C@H](C(=O)N[C@@H](CCCNC(=N)N)C(=O)N[C@@H](CCCNC(=N)N)C(=O)N[C@@H](CO)C(=O)N[C@@H](Cc1ccc(O)cc1)C(=O)N[C@@H](CO)C(=O)N[C@@H](CO)C(=O)N[C@@H](CO)C(=O)N[C@@H](CO)C(=O)N[C@@H](C)C(=O)N[C@@H](CO)C(N)=O)C(C)C [Gly23Ala] (Biotin-YSSYSAPVSSSLSVRRSYSSSSAS-NH2)
Disintegration of MT (% of cells) [1]: 16.9±4.5 % of cells
Cell penetration / internalization in T98G cells (in words) ([2]; 10 µM, immunocytochemistry, compared to original NFL-TBS.40-63): only weak cell-penetrating activity
Peptide incorporation (% of cells) [2]: 6.2±6.2 % of cells

CC(C)[C@H](NC(=O)[C@H](CO)NC(=O)[C@H](C)NC(=O)[C@H](CO)NC(=O)[C@H](CO)NC(=O)[C@H](CO)NC(=O)[C@@H](NC(=O)[C@@H]1CCCN1C(=O)[C@H](C)NC(=O)[C@H](CO)NC(=O)[C@H](Cc1ccc(O)cc1)NC(=O)[C@H](CO)NC(=O)[C@H](CO)NC(=O)[C@H](Cc1ccc(O)cc1)NC(=O)CCCC[C@@H]1SC[C@@H]2NC(=O)N[C@@H]21)C(C)C)C(=O)N[C@@H](CCCNC(=N)N)C(=O)N[C@@H](CCCNC(=N)N)C(=O)N[C@@H](CO)C(=O)N[C@@H](Cc1ccc(O)cc1)C(=O)N[C@@H](CO)C(=O)N[C@@H](CO)C(=O)N[C@@H](CO)C(=O)N[C@@H](CO)C(=O)NCC(=O)N[C@@H](CO)C(N)=O [Leu12Ala] (Biotin-YSSYSAPVSSSASVRRSYSSSSGS-NH2)
Disintegration of MT (% of cells) [1]: 15.5±2.8 % of cells
Peptide incorporation (% of cells) [2]: 0 % of cells

CC(C)[C@H](NC(=O)[C@H](CO)NC(=O)[C@@H](NC(=O)[C@H](CO)NC(=O)[C@H](CO)NC(=O)[C@H](CO)NC(=O)[C@@H](NC(=O)[C@@H]1CCCN1C(=O)[C@H](C)NC(=O)[C@H](CO)NC(=O)[C@H](Cc1ccc(O)cc1)NC(=O)[C@H](CO)NC(=O)[C@H](CO)NC(=O)[C@H](Cc1ccc(O)cc1)NC(=O)CCCC[C@@H]1SC[C@@H]2NC(=O)N[C@@H]21)C(C)C)C(C)C)C(=O)N[C@@H](CCCNC(=N)N)C(=O)N[C@@H](CCCNC(=N)N)C(=O)N[C@@H](CO)C(=O)N[C@@H](Cc1ccc(O)cc1)C(=O)N[C@@H](CO)C(=O)N[C@@H](CO)C(=O)N[C@@H](CO)C(=O)N[C@@H](CO)C(=O)NCC(=O)N[C@@H](CO)C(N)=O [Leu12Val] (Biotin-YSSYSAPVSSSVSVRRSYSSSSGS-NH2)
Disintegration of MT (% of cells) [1]: 43.8±1.7 % of cells
Peptide incorporation (% of cells) [2]: 58.6±5.0 % of cells

CC(C)C[C@H](NC(=O)[C@H](CO)NC(=O)[C@H](CO)NC(=O)[C@H](CO)NC(=O)[C@@H](NC(=O)[C@H](C)NC(=O)[C@H](C)NC(=O)[C@H](CO)NC(=O)[C@H](Cc1ccc(O)cc1)NC(=O)[C@H](CO)NC(=O)[C@H](CO)NC(=O)[C@H](Cc1ccc(O)cc1)NC(=O)CCCC[C@@H]1SC[C@@H]2NC(=O)N[C@@H]21)C(C)C)C(=O)N[C@@H](CO)C(=O)N[C@H](C(=O)N[C@@H](CCCNC(=N)N)C(=O)N[C@@H](CCCNC(=N)N)C(=O)N[C@@H](CO)C(=O)N[C@@H](Cc1ccc(O)cc1)C(=O)N[C@@H](CO)C(=O)N[C@@H](CO)C(=O)N[C@@H](CO)C(=O)N[C@@H](CO)C(=O)NCC(=O)N[C@@H](CO)C(N)=O)C(C)C [Pro7Ala] (Biotin-YSSYSAAVSSSLSVRRSYSSSSGS-NH2)
Disintegration of MT (% of cells) [1]: 26.6±5.9 % of cells
Peptide incorporation (% of cells) [2]: 16.7±4.6 % of cells

CC(C)C[C@H](NC(=O)[C@H](CO)NC(=O)[C@H](CO)NC(=O)[C@H](CO)NC(=O)[C@@H](NC(=O)[C@@H]1CCCN1C(=O)[C@H](C)NC(=O)[C@H](CO)NC(=O)[C@H](Cc1ccc(O)cc1)NC(=O)[C@H](CO)NC(=O)[C@H](C)NC(=O)[C@H](Cc1ccc(O)cc1)NC(=O)CCCC[C@@H]1SC[C@@H]2NC(=O)N[C@@H]21)C(C)C)C(=O)N[C@@H](CO)C(=O)N[C@H](C(=O)N[C@@H](CCCNC(=N)N)C(=O)N[C@@H](CCCNC(=N)N)C(=O)N[C@@H](CO)C(=O)N[C@@H](Cc1ccc(O)cc1)C(=O)N[C@@H](CO)C(=O)N[C@@H](CO)C(=O)N[C@@H](CO)C(=O)N[C@@H](CO)C(=O)NCC(=O)N[C@@H](CO)C(N)=O)C(C)C [Ser2Ala] (Biotin-YASYSAPVSSSLSVRRSYSSSSGS-NH2)
Disintegration of MT (% of cells) [1]: 23.5±1.1 % of cells
Peptide incorporation (% of cells) [2]: 5.9±6.4 % of cells

CC(C)C[C@H](NC(=O)[C@H](CO)NC(=O)[C@H](CO)NC(=O)[C@H](CO)NC(=O)[C@@H](NC(=O)[C@@H]1CCCN1C(=O)[C@H](C)NC(=O)[C@H](CO)NC(=O)[C@H](Cc1ccc(O)cc1)NC(=O)[C@H](C)NC(=O)[C@H](CO)NC(=O)[C@H](Cc1ccc(O)cc1)NC(=O)CCCC[C@@H]1SC[C@@H]2NC(=O)N[C@@H]21)C(C)C)C(=O)N[C@@H](CO)C(=O)N[C@H](C(=O)N[C@@H](CCCNC(=N)N)C(=O)N[C@@H](CCCNC(=N)N)C(=O)N[C@@H](CO)C(=O)N[C@@H](Cc1ccc(O)cc1)C(=O)N[C@@H](CO)C(=O)N[C@@H](CO)C(=O)N[C@@H](CO)C(=O)N[C@@H](CO)C(=O)NCC(=O)N[C@@H](CO)C(N)=O)C(C)C [Ser3Ala] (Biotin-YSAYSAPVSSSLSVRRSYSSSSGS-NH2)
Disintegration of MT (% of cells) [1]: 19.1±0.9 % of cells
Peptide incorporation (% of cells) [2]: 0.8±1.2 % of cells
